We go through one molecule from ChEMBL document CHEMBL1201862, “PubChem BioAssay data set” (2004).

Calls of active or inactive are those of the source.

Experiment [1] has as its target T1, RNA-binding protein pos-1 (Caenorhabditis elegans, UniProt G5EF15).
T1 sequence (G5EF15 whole entry): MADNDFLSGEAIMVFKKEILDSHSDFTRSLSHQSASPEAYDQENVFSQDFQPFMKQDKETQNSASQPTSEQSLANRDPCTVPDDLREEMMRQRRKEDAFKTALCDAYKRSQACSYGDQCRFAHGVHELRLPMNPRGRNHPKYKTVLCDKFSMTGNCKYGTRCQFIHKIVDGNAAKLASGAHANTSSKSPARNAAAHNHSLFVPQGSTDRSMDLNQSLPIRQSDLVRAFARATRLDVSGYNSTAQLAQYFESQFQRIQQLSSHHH
The experiment can be described thus: disruptors of C. elegans POS-1 RNA interaction – biochemical, fluorescence polarization, dose response (AID 1964).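 Also: purified POS-1 fused to maltose binding protein made in E. coli; potency of compounds blocking POS-1 binding to fluorescent RNA.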

Experiment [2] concerns the target T2, Zinc finger protein mex-5 (Caenorhabditis elegans, UniProt Q9XUB2).
T2 sequence (Q9XUB2 whole entry): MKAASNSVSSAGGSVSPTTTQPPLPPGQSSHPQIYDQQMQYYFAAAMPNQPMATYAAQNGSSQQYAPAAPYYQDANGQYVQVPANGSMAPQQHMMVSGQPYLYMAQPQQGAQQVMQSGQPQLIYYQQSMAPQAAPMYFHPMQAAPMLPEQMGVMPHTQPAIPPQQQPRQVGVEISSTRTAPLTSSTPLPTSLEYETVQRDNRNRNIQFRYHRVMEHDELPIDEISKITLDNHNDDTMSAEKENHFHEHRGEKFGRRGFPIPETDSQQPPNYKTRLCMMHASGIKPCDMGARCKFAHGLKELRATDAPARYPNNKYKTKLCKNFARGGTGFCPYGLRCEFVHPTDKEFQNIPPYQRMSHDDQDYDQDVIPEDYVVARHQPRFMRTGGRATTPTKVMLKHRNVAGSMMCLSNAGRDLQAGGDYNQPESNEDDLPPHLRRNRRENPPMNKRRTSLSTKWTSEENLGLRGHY
In words: potency of MEX-5 RNA-binding blockers – biochemical, C. elegans, fluorescence polarization, dose response (AID 1960). For orientation: In fluorescence polarisation assays a small probe gives low polarisation when free and higher when bound to something large.

The target of a further experiment is Large T antigen (Simian virus 40, UniProt P03070). The format is functional, Betapolyomavirus macacae.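 Also: Confirmatory-stage PubChem screen for compounds that inhibit SV40 T antigen.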
The target in experiment [3] is Intestinal-type alkaline phosphatase (Mus musculus, UniProt P24822). In words: PubChem AID 488785. The format is functional.
For experiment [4], the target named is T3, Alkaline phosphatase, tissue-nonspecific isozyme (Homo sapiens, UniProt P05186).
T3 sequence (P05186 whole entry): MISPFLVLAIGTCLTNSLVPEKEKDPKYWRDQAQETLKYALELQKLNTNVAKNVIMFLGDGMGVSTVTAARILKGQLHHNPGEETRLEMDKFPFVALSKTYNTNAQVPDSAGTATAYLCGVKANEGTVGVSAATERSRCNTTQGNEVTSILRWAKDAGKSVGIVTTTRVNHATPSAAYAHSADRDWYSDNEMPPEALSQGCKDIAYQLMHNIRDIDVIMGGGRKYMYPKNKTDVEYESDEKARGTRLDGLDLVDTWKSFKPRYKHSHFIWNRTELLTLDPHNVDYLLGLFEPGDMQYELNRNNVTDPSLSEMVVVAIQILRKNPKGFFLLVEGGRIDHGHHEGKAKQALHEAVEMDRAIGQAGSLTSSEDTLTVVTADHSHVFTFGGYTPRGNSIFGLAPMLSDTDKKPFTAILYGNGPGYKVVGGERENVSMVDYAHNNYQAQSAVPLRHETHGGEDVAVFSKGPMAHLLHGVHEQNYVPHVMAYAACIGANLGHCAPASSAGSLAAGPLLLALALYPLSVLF
The experiment can be described thus: TNAP enzyme inhibition by screening hits, dose response, selectivity assay for mouse IAP inhibitor project, biochemical, human TNAP, uHTS hits (AID 488906). The format is functional.

The target in experiment [5] is Intestinal-type alkaline phosphatase (Homo sapiens, UniProt P09923). In words: inhibition of human intestinal alkaline phosphatase – biochemical, dose response (AID 488876). Format: functional.
Chain of Intestinal-type alkaline phosphatase (Homo sapiens, UniProt P09923) (P09923 whole entry): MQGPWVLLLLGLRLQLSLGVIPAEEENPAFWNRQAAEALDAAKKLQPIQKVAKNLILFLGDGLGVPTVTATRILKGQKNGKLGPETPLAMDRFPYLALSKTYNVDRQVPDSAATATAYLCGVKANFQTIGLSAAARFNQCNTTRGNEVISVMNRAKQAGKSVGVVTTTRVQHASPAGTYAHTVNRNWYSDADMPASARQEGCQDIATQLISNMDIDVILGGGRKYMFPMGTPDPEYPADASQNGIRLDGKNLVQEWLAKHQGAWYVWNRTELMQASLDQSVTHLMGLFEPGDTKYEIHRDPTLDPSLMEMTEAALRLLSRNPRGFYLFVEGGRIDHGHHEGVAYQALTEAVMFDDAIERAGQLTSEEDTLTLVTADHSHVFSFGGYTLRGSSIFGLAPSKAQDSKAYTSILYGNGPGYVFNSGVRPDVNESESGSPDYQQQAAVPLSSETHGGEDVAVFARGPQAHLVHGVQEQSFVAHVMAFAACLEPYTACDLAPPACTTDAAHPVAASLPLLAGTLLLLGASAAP

Chain of Intestinal-type alkaline phosphatase (Mus musculus, UniProt P24822) (P24822 whole entry): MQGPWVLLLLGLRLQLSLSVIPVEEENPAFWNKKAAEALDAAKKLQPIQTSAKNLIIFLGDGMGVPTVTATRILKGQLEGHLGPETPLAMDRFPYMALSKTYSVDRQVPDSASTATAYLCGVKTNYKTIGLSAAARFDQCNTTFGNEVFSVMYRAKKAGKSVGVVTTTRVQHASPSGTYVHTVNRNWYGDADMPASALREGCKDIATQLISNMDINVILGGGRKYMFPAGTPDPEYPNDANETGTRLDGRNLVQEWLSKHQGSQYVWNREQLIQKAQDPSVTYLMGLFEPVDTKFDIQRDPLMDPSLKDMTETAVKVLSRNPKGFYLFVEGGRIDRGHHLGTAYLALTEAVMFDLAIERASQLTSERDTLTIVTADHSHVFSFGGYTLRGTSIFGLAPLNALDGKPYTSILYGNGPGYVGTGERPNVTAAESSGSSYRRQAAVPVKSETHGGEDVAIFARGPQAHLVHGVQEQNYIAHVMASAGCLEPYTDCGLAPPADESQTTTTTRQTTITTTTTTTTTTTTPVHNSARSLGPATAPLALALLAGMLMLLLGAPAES
Chain of Large T antigen (P03070 whole entry): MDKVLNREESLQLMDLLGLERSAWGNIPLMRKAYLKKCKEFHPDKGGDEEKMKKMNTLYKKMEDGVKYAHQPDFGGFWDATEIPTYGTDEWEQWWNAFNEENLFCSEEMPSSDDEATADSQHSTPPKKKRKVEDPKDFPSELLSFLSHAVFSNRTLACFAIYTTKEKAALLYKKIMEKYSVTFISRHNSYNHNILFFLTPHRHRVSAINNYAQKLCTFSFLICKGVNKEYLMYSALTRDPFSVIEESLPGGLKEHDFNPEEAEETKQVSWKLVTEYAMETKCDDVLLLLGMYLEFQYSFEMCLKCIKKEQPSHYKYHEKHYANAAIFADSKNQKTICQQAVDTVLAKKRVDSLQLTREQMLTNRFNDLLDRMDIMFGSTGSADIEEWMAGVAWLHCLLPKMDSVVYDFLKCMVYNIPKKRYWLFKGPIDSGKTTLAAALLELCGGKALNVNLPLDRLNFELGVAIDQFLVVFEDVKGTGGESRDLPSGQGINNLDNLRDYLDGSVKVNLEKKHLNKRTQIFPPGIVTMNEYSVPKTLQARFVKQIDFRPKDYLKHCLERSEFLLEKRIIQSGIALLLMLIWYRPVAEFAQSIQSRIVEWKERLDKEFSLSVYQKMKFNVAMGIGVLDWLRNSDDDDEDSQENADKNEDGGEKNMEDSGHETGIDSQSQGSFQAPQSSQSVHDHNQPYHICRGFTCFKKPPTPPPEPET

By EC50 is commonly meant the midpoint of the concentration-response curve. As a reminder, the IC50 is the concentration that inhibits the measured activity by half. As to `CCOc1ccc(S(=O)(=O)Nc2cc(Sc3nnc[nH]3)c3oc(=O)sc3c2)cc1`, the figures for the EC50 in experiment [1] and in experiment [2] were 65.8 µM (active) and 14.6 µM (active), respectively. Moreover, the IC50 on Large T antigen is 20.8 µM (active); in experiment [3], 5.37 µM (active); in experiment [4], > 100 µM (inactive); in experiment [5], > 100 µM (inactive).
